Consider 1 molecule from PMC6533572, “Elucidation of the Differences in Cinobufotalin’s Pharmacokinetics Between Normal and Diethylnitrosamine-Injured Rats: The Role of P-Glycoprotein” (Frontiers in Pharmacology, 2019).

Structures are written as SMILES. Like-named read-outs stand apart in the source and are kept apart here.

Details of data set [1]: method as in Bick et al., 2002; Bi et al., 2016. The settings on record: ref Bick et al., 2002, Bi et al., 2016; cited from earlier work.
The test system of another data set is HepG2 cells. Description: Wound healing assay, HepG2 cells. It counts as cell-based. The settings on record: 40, 60 and 80 nM, 24 h. The procedure:
Hepatocellular cancer cells (HepG2 and Huh-7) were purchased from the cell bank of the Chinese Academy of Science (Shanghai, China). These cells were cultured in Dulbecco’s modified Eagle’s medium (DMEM) containing 10% fetal bovine serum (FBS), penicillin (100 units/mL) and streptomycin (100 units/mL) in a humidified atmosphere with 5% CO2 at 37 °C.
Wound healing assay was used to investigate the effect of cinobufotalin on the migration of HepG2 and Huh-7 cells. Cells were seeded into 6-well plates at the density of 4 × 10^5 cells/well and maintained until reaching monolayer confluence. The cells were scratched using 20-μL pipette tips and rinsed with PBS buffer for three times. And then the cells were cultured in serum-free medium containing different concentrations of cinobufotalin (40, 60, 80 nM). After treatment with cinobufotalin for different lengths of time (0 and 24 h), the width of wound was measured and the images of cells were acquired using inverted microscope (Leica, Wetzlar, German). The rate of wound healing = [(the wound width of 0 h - 24 h)/0 h wound width] × 100%. All experiments were performed in triplicate.

The next data set concerns the target T1, P-glycoprotein (P-gp) (Homo sapiens, UniProt P08183).
T1 construct: expressed in transfected cells; host or cells: MDCK II (Madin Darby canine kidney) cells stably transfected with the MDR1 gene
Description: Bidirectional transport across MDCK-MDR1 cell monolayers. To be noted: for Net flux ratio: ER MDCK-MDR1 / ER MDCK II, cinobufotalin 20 μM; for Papp A→B at 120 min, 20 μM / Papp B→A at 120 min, 20 μM / efflux ratio at 120 min, 20 μM: dog, MDCK-MDR1, cinobufotalin 20 μM; for efflux ratio at 120 min, 20 μM: read-out: ER. The format is in vitro ADME. On the procedure: MDCK II and MDCK-MDR1 cells were seeded into 12-well Transwell polycarbonate membrane inserts (12 mm diameter inserts, 0.4 μm pore size, Corning Costar) at a density of 6 × 10^5 cells/well. Cells were cultured at 37°C under 5% CO2 in DMEM with 10% FBS, and the culture medium was refreshed every other day. Experiments were conducted when the tight junctional cell monolayer formed. First, the cells were washed three times using 37°C preheated HBSS buffer (pH = 7.4) and preincubated in a shaking incubator for 30 min at 37°C. Then the transport studies were initiated after the blank HBSS buffer and dosing solution (HBSS buffer containing cinobufotalin at a final concentration of 20 μM) were added to the receiver compartment and donor compartment, respectively. Verapamil, if used, was added to both compartment during the incubated period. The volumes of the apical side (AP) and basolateral side (BL) were 0.5 and 1.5 mL, respectively. Samples (100 μL) were taken from the receiver compartment every 30 min during the incubation period of 120 min, and then replaced with the same volume of […]. At the end of the incubated period, aliquots of 100 μL were withdrawn from the donor compartment to calculated mass balance. All samples were mixed with 50 μL acetonitrile and centrifuged at 4°C (12,000 g, 10 min. The supernatant was subjected to UPLC-QTOF/MS for analyses.
The apparent permeability (cm/s) from apical-to-basal (Papp,AP-BL) and basal-to-apical (Papp,BL-AP) were calculated according to the following Equation (4), where dQ/dt is the rate of drug permeation (nmol/s), A is the area of polycarbonate membrane (A = 1.12 cm^2), and C0 is the initial concentration of cinobufotalin in the donor compartment.
The efflux ratio (ER) and net flux ratio were calculated according to Equations (5) and (6) as described in our previous research ([Sun et al., 2017]).
(5) ER=Papp, BL−AP/Papp, AP−BL
(6) Net flux ratio=ERMDCK−MDRI/ERMDCK II

The next data set deals with CYP3A4. Also on record: method as in Han et al., 2016. To be noted: especially mediated by CYP3A4; ref Han et al., 2016; cited from earlier work.
The nature of data set [2]: Liver distribution of cinobufotalin in normal and DEN-injured rats. To be noted: male, Sprague Dawley, rat, iv, 2.5 mg/kg, i.v. 2.5 mg/kg, after the last sampling time point (24 h), read-out: concentration of cinobufotalin in liver tissues. The format is in vivo. The procedure:
For PK studies, the rats were randomly divided into two experimental groups (10 rats for normal rats group and 20 rats for DEN-injured rats group, considering the animal casualties during the modeling process). HCC rat model was established by intraperitoneal administration of 50 mg/kg DEN two times per week ([Fuchs et al., 2014]), and the control group rats were treated with normal saline in the same way. After 14 weeks of administration, three rats were randomly selected and anesthetized by anesthesia cocktail (Ketamine 50 mg/mL, Xylazine 3.3 mg/mL and Acetopromazine 3.3 mg/mL). Then the liver was taken out and photographed to determine whether the animal model was successfully constructed.
Before PK experiment, a cannula was introduced into the jugular vein of the anesthetized rat and administrated carprofen subcutaneously after the surgery. After observation for 24 h, when the activity and excretion of rats were normal, rats were dosed with cinobufotalin at 2.5 mg/kg through jugular vein cannula. Blood samples (200 μL) were withdrawn at each pointed time (5, 10, 15, 30, 45 min, and 1, 1.5, 2, 4, 6, 8, 12, and 24 h) after dosing, and whole blood was transferred into tubes pre-treated with heparin (1000 U/mL). Then an equal volume of saline was injected into rats through jugular vein cannula immediately. […]

The mark [3] stands for this setting: pH 7.4, with verapamil (concentration not stated), in both compartments, with verapamil.

A word on the Papp A→B: it is how fast a substance crosses the layer from the apical side. For orientation: Papp B→A means how fast a substance crosses the layer from the basolateral side.

T1 sequence (P08183 whole entry): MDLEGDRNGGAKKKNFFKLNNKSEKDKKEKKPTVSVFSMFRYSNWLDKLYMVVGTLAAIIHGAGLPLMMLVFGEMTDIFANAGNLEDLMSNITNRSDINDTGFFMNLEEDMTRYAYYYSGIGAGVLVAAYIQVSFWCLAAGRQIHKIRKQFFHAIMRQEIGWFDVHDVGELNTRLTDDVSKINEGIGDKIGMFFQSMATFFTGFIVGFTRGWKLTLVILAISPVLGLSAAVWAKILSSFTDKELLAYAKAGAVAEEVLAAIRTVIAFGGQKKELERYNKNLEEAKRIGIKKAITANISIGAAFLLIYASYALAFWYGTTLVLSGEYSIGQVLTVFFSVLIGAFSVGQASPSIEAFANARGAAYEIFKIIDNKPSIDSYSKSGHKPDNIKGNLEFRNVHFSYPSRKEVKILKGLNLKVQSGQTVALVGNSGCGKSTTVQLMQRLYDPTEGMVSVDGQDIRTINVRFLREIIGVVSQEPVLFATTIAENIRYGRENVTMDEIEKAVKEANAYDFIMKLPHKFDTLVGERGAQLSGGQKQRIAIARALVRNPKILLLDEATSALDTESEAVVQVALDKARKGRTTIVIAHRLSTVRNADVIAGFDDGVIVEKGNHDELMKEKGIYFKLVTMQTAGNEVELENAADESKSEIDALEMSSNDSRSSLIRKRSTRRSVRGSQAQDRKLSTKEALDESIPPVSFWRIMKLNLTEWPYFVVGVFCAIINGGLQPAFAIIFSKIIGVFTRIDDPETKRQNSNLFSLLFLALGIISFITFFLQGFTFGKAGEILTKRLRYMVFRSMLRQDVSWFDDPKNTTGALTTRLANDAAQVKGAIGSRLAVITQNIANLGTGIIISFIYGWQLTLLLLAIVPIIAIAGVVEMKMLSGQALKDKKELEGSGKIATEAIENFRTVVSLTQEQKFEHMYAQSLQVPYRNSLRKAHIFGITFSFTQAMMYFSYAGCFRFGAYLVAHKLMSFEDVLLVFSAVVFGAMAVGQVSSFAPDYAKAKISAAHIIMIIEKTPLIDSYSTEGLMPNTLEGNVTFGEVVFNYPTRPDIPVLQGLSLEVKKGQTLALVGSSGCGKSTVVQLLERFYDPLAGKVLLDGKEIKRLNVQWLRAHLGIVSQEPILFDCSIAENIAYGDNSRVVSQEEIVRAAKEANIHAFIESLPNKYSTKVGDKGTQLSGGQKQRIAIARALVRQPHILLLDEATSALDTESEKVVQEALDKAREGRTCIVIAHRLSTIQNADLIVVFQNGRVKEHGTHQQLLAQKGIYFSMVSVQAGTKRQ

Regarding `CC(=O)O[C@H]1[C@H]2O[C@]23[C@@H]2CC[C@]4(O)C[C@@H](O)CC[C@]4(C)[C@H]2CC[C@]3(C)[C@H]1c1ccc(=O)oc1` [Cinobufotalin], the “toxicity on over dose” value in data set [1] was “cardiotoxicity and neurotoxicity”. Besides, the “migration of HepG2 cells (wound healing)” value with HepG2 cells is reported as “significantly attenuated”. Further, the Net flux ratio at P-glycoprotein (P-gp) came to 2.1; at P-glycoprotein (P-gp) (with verapamil) it was 1.0. The “decrease of net flux ratio when verapamil was used” value on P-glycoprotein (P-gp) (MDCK-MDR1 vs MDCK II, with verapamil) is listed as 50.7%. In addition, the Papp A→B at 120 min, 20 μM at P-glycoprotein (P-gp) (setting [3]) was 32.1 ± 1.5 ×10⁻⁶ cm/s; at P-glycoprotein (P-gp) (pH 7.4) it was 19.4 ± 1.3 ×10⁻⁶ cm/s. The values for the Papp B→A at 120 min, 20 μM at P-glycoprotein (P-gp) (setting [3]) and on P-glycoprotein (P-gp) (pH 7.4) were 34.5 ± 2.3 ×10⁻⁶ cm/s and 42.4 ± 1.5 ×10⁻⁶ cm/s, respectively. Moreover, the efflux ratio at 120 min, 20 μM on P-glycoprotein (P-gp) (setting [3]) came to 1.1; at P-glycoprotein (P-gp) (pH 7.4) it was 2.2. Also, at P-glycoprotein (P-gp) (net flux ratio higher than 2 and reduction more than 50% with verapamil), the P-gp substrate identification entry is “substrate of P-gp”. Moreover, the “metabolic pathways in human liver microsomes” value with CYP3A4 was “undergo hydroxylation and dehydrogenation”. The concentration at 24 h in data set [2] (DEN-injured rats) was determined as 21 ± 2.7 ng/mL; in data set [2] (normal rats), 39.3 ± 4.9 ng/mL.
